What was measured:
[1] = Photophysical properties of the citrate detection sensor in the presence and absence of citrate; format: physicochemical
Method: Meanwhile, referring to FIG. 5, it can be seen that the citrate detection sensor not subjected to reaction with citrate expresses (blue) fluorescence while emitting weak fluorescence at 346 nm and 458 nm. On the contrary, when citrate is added to the citrate detection sensor including 2 μM of ARBD in the presence of 10 mM of 4-(2-hydroxyethyl)-1-piperazineethane sulfonic acid (HEPES) buffer (2 vol % DMSO) at pH 7.4, it can be seen that strong fluorescence appears at 548 nm together with a dramatic color change from blue to green. […] However, such a change in fluorescence is differentiated preferentially by visualization.

[2] = Job plot and reaction kinetics of the sensor including ARBD with citrate; details: reaction with citrate; plot of ln(Fmax−F)/Fmax vs time
Description: To understand the bonding behavior in the reaction between the citrate detection sensor including ARBD and citrate, the reaction was investigated by using the Job plot.
It can be seen from FIG. 3 that the maximum absorption intensity appears at a molar fraction of 0.5. Thus, it can be seen that a 1:1 complex is formed during the reaction of the citrate detection sensor with citrate. In this case, the reaction kinetics may be expressed by −kt=ln(Fmax−F)/Fmax (wherein k=rate constant, and ‘F’ and ‘Fmax’ represent the fluorescence intensity at time ‘t’). In addition, the maximum intensity reaction value accomplished after the completion of the reaction was calculated by using the plot of ‘ln(Fmax−F)/Fmax vs time’ as shown in FIG. 4.

[3] = Fluorescence intensity as a function of time and pH in the presence of citrate; format: physicochemical
Method: Meanwhile, FIG. 6A to FIG. 6C show a graph illustrating a change in fluorescence intensity of the citrate detection sensor as a function of time in the presence of different concentrations of citrate (0-0.9 μM), a graph illustrating fluorescence emission intensity of ARBD and citrate at different pH values and a fluorescence image thereof, respectively.
When optimizing the determination condition in FIG. 6A, it can be seen that the maximum value of fluorescence intensity is accomplished within about 15 minutes. […] Thus, it can be seen that when citrate is introduced to the citrate detection sensor, fluorescence enhancement may be varied with pH.

[4] = High-sensitivity detection of citrate (UV-Vis absorption and fluorescence titration); details: pH 7.4, 10 mM HEPES (2 vol % DMSO)
Method: The initial citrate tracking ability of the citrate detection sensor including ARBD was evaluated by using UV-Vis absorption spectrometry using ARBD at pH 7.4 in the presence of 10 mM of HEPES buffer solution (2 vol % DMSO). Referring to FIG. 7A to FIG. 7C, it is possible to determine a change in fluorescence spectrum of ARBD when adding citrate at a concentration increasing linearly. […] The absorption intensity at 346 nm is decreased whenever citrate is added and a new peak position appears at 400 nm. In addition, as shown in FIG. 7A to FIG. 7C, it can be seen that an increase in concentration of citrate affects both the fluorescence intensity and the fluorescence wavelength. Further, it can be seen that when the concentration of citrate is increased from 0 to 800 nM for the citrate detection sensor including 2 μM of ARBD at pH 7.4 in the presence of 10 mM of HEPES buffer solution (2 vol % DMSO), the maximum fluorescence intensity is increased linearly to 548 nm. It can be also seen that when the concentration of citrate is increased to 950 nM, the peak at 548 nm is increased linearly while causing no change in wavelength.

[5] = Selectivity and interference of the citrate detection sensor
Method: The citrate detection sensor was used to test the selectivity and interference capability to the related similar species for the detection of the other biological carboxylate and citrate. For this test, 1 μM of citrate and 0.5 mM of the other ions were added ((1) sensor, (2) citrate, (3) fumarate, (4) benzoate, (5) glutamate, (6) succinate, (7) malonate, (8) oxalate, (9) acetate, (10) phosphate, (11) sulfite, and (12) sulfate).
Referring to FIG. 8C, it can be seen that even when the other ionic substances have a concentration at least 500 times higher than the concentration of citrate, the citrate detection sensor is reactive selectively with citrate without any interference under high sensitivity. In addition, since it is well known that boronate is a diol sensor, selectivity was also determined for the other materials having a diol moiety, such as hydrogen peroxide (H2O2), glucose, fructose, sucrose, dopamine species, or the like. […] Although the two analytes undergo a reaction in response to the fluorescence intensity, it can be seen that citrate emits green fluorescence and H2O2 emits blue fluorescence. Thus, it can be seen that since only citrate emits green fluorescence in a biological sample at a concentration of ‘μM’ scale, it is possible to detect citrate with ease by the naked eyes through the citrate detection sensor.

PC3 cells = assay: Fluorescence expression of the citrate detection sensor in living PC3 cells; format: cell-based; details: ARBD 2 μM, cultured 30 minutes
Method: The citrate detection sensor was evaluated in terms of its probe capability in living cells (PC3). […] Particularly, after the citrate sensor including ARBD (2 μM) was cultured for 30 minutes, the image in PC3 cells was observed.
FIG. 9A to FIG. 9C show the fluorescence expressed generally when ARBD is introduced to prostate cancer cells. The image (FIG. 9C) of the expressed fluorescence (FIG. 9A) overlapped with the photo image (FIG. 9B) of the cell lines is shown between them. Then, green fluorescence expressed when adding citrate to the detection sensor inserted to the cell lines was observed. The image (FIG. 9D) after adding citrate, the photo image (FIG. 9E) thereof and their overlapped image (FIG. 9F) are shown in FIG. 9D to FIG. 9F.

## CC1(C)OB(c2ccc(-c3nc(-c4ccc(-c5nc(-c6ccccc6)c(-c6ccccc6)[nH]5)cc4)no3)cc2)OC1(C)C [ARBD, 5-(4-(4,4,5,5-tetramethyl-1,3,2-dioxaborolan-2-yl)phenyl)-3-(4-(4,5-diphenyl-1H-imidazol-2-yl)phenyl)-1,2,4-oxadiazole]
[1]
  Fluorescence quantum yield: 0.18
  Maximum absorption wavelength (λabs): 352
  Maximum emission wavelength (λemiss): 458
[1]; citrate added, 2 μM ARBD, 10 mM HEPES buffer (2 vol % DMSO), pH 7.4, strong fluorescence, color change blue to green
  fluorescence emission wavelength: 548 nm
[1]; sensor not subjected to reaction with citrate, weak (blue) fluorescence
  fluorescence emission wavelength: 458 nm
[2]
  k (reaction rate constant): 0.148 min⁻¹
[3]; ARBD and citrate at different pH values
  pH of highest and stable fluorescence intensity: 7-8 pH
[3]; citrate 0-0.9 μM
  time to maximum value of fluorescence intensity: ≤ 15 min
[3]; citrate 0-0.9 μM, whole concentration range
  stability of fluorescence intensity after reaction with citrate: maintained constantly to 60 minutes
[4]; S/N=3, 2 μM ARBD
  detection limit for citrate: 10 nM
[4]; citrate 0 to 12 μM
  new absorption peak position on addition of citrate: 400 nm
[4]; initial stage, no citrate
  absorption peak: 346 nm
[5]; 1 μM citrate, 0.5 mM fumarate, benzoate, glutamate, succinate, malonate, oxalate, acetate, phosphate, sulfite, sulfate
  selectivity: fluorescence enhancement by citrate versus other ions: only citrate can induce fluorescence enhancement
[5]; H2O2, glucose, fructose, sucrose, dopamine species, citrate emits green, H2O2 blue fluorescence
  selectivity versus materials having a diol moiety: reacts only with citrate and hydrogen peroxide
[5]; other species at least 500 times higher concentration than citrate
  interference of other ionic compounds with detection of citrate: no effect upon the detection of citrate
PC3 cells
  fluorescence in cells after adding citrate: reacts with citrate to express a green color

Reference: patent US10578622B2, “Sensors for detecting citrate, and method of detecting citrate using the same” (KOREA INSTITUTE OF SCIENCE AND TECHNOLOGY, priority 2017, dated 2020)
